Assay [1] has as its system General Bacteria (bacterial bird rinse). The assay is described as follows: General Bacteria Assay (Vivione RAPID-B Total Plate Count). The assay is classed as cell-based.
The subject of assay [2] is Salmonella enterica serovar Anatum (ATCC #9270). The assay is described as follows: Salmonella Assay (liquid sanitizer exposure, log reduction). The assay is classed as cell-based.

Molecules are shown by their SMILES.

Regarding `O.O.O.O.O.O=S(=O)([O-])[O-].[Cu+2]` [Copper, Copper (II) sulfate pentahydrate], the “Average Live” value came out at 1633 in assay [1] (5 ppm copper, pH at inoculation 5.68, Baseline 1562) and 1666 in assay [1] (50 ppm copper, pH at inoculation 4.71, Baseline 1562). For the same compound, the “activity against bacteria (in words)” value in assay [1] (at 5 ppm and 50 ppm concentrations) was “negligible activity”. In addition, in assay [2] (0 ppm chlorine, 10 ppm copper, Solution pH 6.0, Control Sample Baseline 7.02 log, n = 3), the “Treated Sample Reduction” value amounted to 3.83 log. For the same compound, in assay [2] (at lower ppm), the “antimicrobial effect (in words)” value is on record as “limited antimicrobial effect”.

Consider `O=C(O)CC(O)(CC(=O)O)C(=O)O` [citric acid @ 0.25%, citric acid], for which the “Average Live” value in assay [1] (pH at inoculation 2.43, Baseline 408) is 75.
